Experiments:
[1] = Crenshaw et al., J. Med. Chem. 1976; cited from earlier work
[2] = system: Spontaneously hypertensive rats; assay: Reversal of nitrate-induced tolerance in nitroglycerin tolerant spontaneously hypertensive rats; assay type: in vivo, rat
Method: Spontaneously hypertensive rats (17-25 weeks of age) were made nitroglycerin tolerant by repeated administration of high doses of nitroglycerin (100 mg/kg, s.c., 3 times/day for 3 consecutive days). To confirm tolerance challenge doses of nitroglycerin were administered intravenously at doses ranging from 1-300 μg/kg and the maximum change in mean arterial pressure (MAP) for each dose was recorded. Groups of tolerant rats were pretreated with the compounds of the invention (tolerant pretreated group) or with vehicle (0.05 N NaOH) (tolerant vehicle pretreated group) intravenously 5-10 minutes prior to administration of challenge doses of nitroglycerin. The administration of challenge doses of nitroglycerin to non-tolerant rats (the non-tolerant group) caused a dose-dependent decrease in MAP of between 10 to 40 mm Hg. […] The area under the dose-MAP curve was calculated for the non-tolerant group and for the tolerant vehicle pretreated group and the tolerant pretreated group. The percent reversal of nitrate-induced tolerance was calculated as follows:
Percent Reversal=(AUCtol-pretreated -AUCtol-veh) /(AUCnontol
AUCnontol =the area under the dose-MAP curve for the non-tolerant group.
AUCtol-veh =the area under the dose-MAP curve for the tolerant vehicle pretreated group.
AUCtol-pretreated =the area under the dose-MAP curve for the tolerant pretreated group. […]

[3] = system: cGMP-PDE V; assay: c-GMP-PDE V inhibitory activity; assay type: biochemical, various animal species and man; conditions: separate experimental runs
Method: The cGMP-PDE and other PDE isozymes were isolated from cardiovascular tissues (heart and aorta) of various animal species and man by anion-exchange and affinity chromatography as described by Silver et al., Sec. Messeng. Phos. 13:13-25, 1991; PDE activity, in the presence and absence of test compounds was determined essentially as described by Thompson et al., Adv. Cyclic Nucleotide Res. 10:69-92. To determine the potency and selectivity of compounds as PDE inhibitors, compounds are screened for their effect on cyclic nucleotide hydrolysis at 10 μM. […] The IC50 values are calculated from concentration-response curves as described by Tallarida and Murray, Manual of Pharmacologic Calculations with Computer Programs, Procedure 8, Graded Dose-response, pp. 14-19, Springer-Verlag, New York, 1981.

[4] = system: cGMP-PDE V; conditions: read-out: Km for the hydrolysis of cGMP; isozyme of vascular smooth muscle and renal cells; cited from earlier work

Cc1nn(C)c2nc3ccccc3c(NC3CC3)c12 [N-cyclopropyl]
activity in the interferon assay [1]: inactive

Cc1nn(C)c2nc3ccccc3c(NCc3ccccc3N(C)C)c12 [N-[[2-(dimethylamino)phenyl]methyl]-1,3-dimethyl-1H-pyrazolo[3,4-b]quinolin-4-amines]
activity in the interferon assay [1]: inactive

Cc1nn(C)c2nc3ccccc3c(NCCCNC34CC5CC(CC(C5)C3)C4)c12 [N-(1,3-dimethyl-1H-pyrazolo[3,4-b]quinolin-4-yl)-N'-tricyclo[3.3.1.1^3.7]dec-1-yl-1,3-propane diamine]
activity in the interferon assay [1]: inactive

O=[N+]([O-])OCC(CO[N+](=O)[O-])O[N+](=O)[O-] [nitroglycerin, reference compound]
hypotensive response to challenge doses of nitroglycerin, in words ([2]; tolerant vehicle pretreated group): significant reduction of the hypotensive response

Cc1nn(C)c2nc3ccccc3c(NCc3cccnc3)c12 [N-(3-pyridinylmethyl)]
activity in the interferon assay [1]: inactive

Cc1nn(C)c2nc3ccccc3c(NC34CC5CC(CC(C5)C3)C4)c12 [N-tricyclo[3.3.1.13,7]dec-1-yl]
activity in the interferon assay [1]: inactive

CCn1ncc2c(N[C@@H](C)C3CCCCC3)c3cc([N+](=O)[O-])ccc3nc21 [Example 34, 1-ethyl-6-nitro-N-[S(+)-1-(cyclohexyl)ethyl]-1H-pyrazolo[3,4-b]quinolin-4-amine]
Percent (%) Reversal of Nitroglycerin-induced Tolerance ([2]; 1.0 mg/kg, intravenously 5-10 minutes prior to nitroglycerin challenge): 44% | IC50 ([3]; first value): 0.22 nM | IC50 ([3]; second value): 0.16 nM | IC50 ([3]; third value): 0.08 nM

Nc1nc2c(ncn2[C@@H]2O[C@@H]3COP(=O)(O)O[C@H]3[C@H]2O)c(=O)[nH]1 [cGMP, cyclic guanosine monophosphate]
Km [4]: 1 µM

Reference: patent US5488055A, “Substituted N-cycloalkylmethyl-1H-pyrazolo(3,4-b)quinolin-4 amines and compositions and methods of use thereof” (Sanofi Winthrop Inc., priority 1995, dated 1996)
